The text below walks through data of patent US20070203066A1, “Compositions and methods for inhibiting cellular proliferation” (priority 2005, published 2007).

What is called pIC50 is the negative decadic logarithm of the IC50, by convention in mol/L.

pIC50: −log10 of the molar value. Primed or numbered codes have the meaning given here. No end group written: not given here. Ida(3) = iminodiacetic acid linker, Lys side-chain amines bound to its two carboxyl groups; Ida″ = iminodiacetic acid linker bound to the Lys side-chain amine, forming a dimer

The test system of this test is HUVECs. It counts as cell-based. The following applies: HUVEC proliferation, bFGF at 10 ng/ml or VEGF at 5 ng/ml, 48 hours, BrdU incorporation; read-out: IC50 on HUVECs. Summed up: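 HUVECs seeded at 5,000 cells/well in EBM with 2% FCS, adhered ≥12 hours, then stimulated with bFGF 10 ng/ml or VEGF 5 ng/ml plus varying peptide concentrations. After 48 hours at 37 ° C, 5% CO2, proliferation inhibition read by BrdU incorporation.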
“462 (Ac-ARRRRK(Ida(3))AVAIYF; also: homodimer via Ida linker on Lys side chains, linker at 6 via Ida, other end not in the chain) [compound 462]”: the pIC50 was 4.52 to 5.00.
As for “463 (Ac-ARRARQAVAIYFK(Ida(3)); not fully specified (C-terminus); also: homodimer via Ida linker on Lys side chains, linker at 13 via Ida, other end not in the chain) [compound 463]”, the pIC50 is more than 5.00.
As for “464 (Ac-ARRERQAVAIYFK(Ida(3)); not fully specified (C-terminus); also: homodimer via Ida linker on Lys side chains, linker at 13 via Ida, other end not in the chain) [compound 464]”, the figure is more than 5.00.
As to “465 (Ac-ARRQRQAVAIYFK(Ida(3)); not fully specified (C-terminus); also: homodimer via Ida linker on Lys13 side chain) [compound 465]”, the pIC50 was more than 5.00.
With “466 (Ac-AK(Ida(3))RRRQAVAIYF; also: homodimer via Ida linker on Lys2 side chain) [compound 466]”, the negative-log IC50 (pIC50) is less than 4.52.
As for “467 (Ac-ARK(Ida(3))RRQAVAIYF; also: homodimer via Ida linker on Lys3 side chain) [compound 467]”, the pIC50 was less than 4.52.
In the case of “468 (Ac-ARRIRQAVAIYFK(Ida(3)); not fully specified (C-terminus); also: homodimer via Ida linker on Lys13 side chain) [compound 468]” it was less than 4.52; in that of “469 (Ac-ARRRRQRVAIYFKARRRRQRVAIYFK; not fully specified) [compound 469]”, more than 5.00; in that of “470 (Ac-PRRRDQAVAIYFK(Ida(3)); not fully specified (C-terminus); also: homodimer via Ida linker on Lys13 side chain) [compound 470]”, less than 4.52.
For “471 (Ac-PRRRFQAVAIYFK(Ida(3)); not fully specified (C-terminus); also: homodimer via Ida linker on Lys13 side chain) [compound 471]”, the pIC50 is less than 4.52.
In the case of “472 (Ac-PRRRGQAVAIYFK(Ida(3)); not fully specified (C-terminus); also: homodimer via Ida linker on Lys13 side chain) [compound 472]” it was less than 4.52.
Consider “473 (Ac-PRRRLQAVAIYFK(Ida(3)); not fully specified (C-terminus); also: homodimer via Ida linker on Lys13 side chain) [compound 473]”, for which the pIC50 is less than 4.52.
For “474 (Ac-PRRRMQAVAIYFK(Ida(3)); not fully specified (C-terminus); also: homodimer via Ida linker on Lys13 side chain) [compound 474]”, the pIC50 was 4.52 to 5.00.
Take “475 (Ac-PRRRNQAVAIYFK(Ida(3)); not fully specified (C-terminus); also: homodimer via Ida linker on Lys13 side chain) [compound 475]”: the pIC50 was more than 5.00.
As to “476 (Ac-PRRRPQAVAIYFK(Ida(3)); not fully specified (C-terminus); also: homodimer via Ida linker on Lys13 side chain) [compound 476]”, the pIC50 is more than 5.00.
In the case of “477 (Ac-PRRRSQAVAIYFK(Ida(3)); not fully specified (C-terminus); also: homodimer via Ida linker on Lys13 side chain) [compound 477]” it was 4.52 to 5.00.
For the substance “478 (Ac-PRRRTQAVAIYFK(Ida(3)); not fully specified (C-terminus); also: homodimer via Ida linker on Lys13 side chain) [compound 478]”, the pIC50 is 4.52 to 5.00.
Take “479 (Ac-PRRRVQAVAIYFK(Ida(3)); not fully specified (C-terminus); also: homodimer via Ida linker on Lys13 side chain) [compound 479]”: the pIC50 was 4.52 to 5.00.
As to “480 (Ac-PRRRWQAVAIYFK(Ida(3)); not fully specified (C-terminus); also: homodimer via Ida linker on Lys13 side chain) [compound 480]”, the pIC50 was 4.52 to 5.00.
In the case of “481 (Ac-PRRRYQAVAIYFK; not fully specified (residue 13, C-terminus); also: homodimer via Ida linker on Lys13 side chain) [compound 481]” it was 4.52 to 5.00; in that of “482 (Ac-PRRRRQAVAIKF; not fully specified (residue 11); also: homodimer via Ida linker on Lys11 side chain) [compound 482]”, more than 5.00; in that of “483 (Ac-QRRRRQAVAIKF; not fully specified (residue 11); also: homodimer via Ida linker on Lys11 side chain) [compound 483]”, more than 5.00.
As to “484 (Ac-ARRRNQAVAIKF; not fully specified (residue 11); also: homodimer: Lys11 side chain bound to Ida linker (Boc on Ida N)) [compound 484]”, the pIC50 was more than 5.00.
In the case of “485 (Ac-ARRRPQAVAIKF; not fully specified (residue 11); also: homodimer: Lys11 side chain bound to Ida linker (Boc on Ida N)) [compound 485]” it was more than 5.00; in that of “486 (Ac-ARRRRQSVAIKF; not fully specified (residue 11); also: homodimer: Lys11 side chain bound to Ida linker (Boc on Ida N)) [compound 486]”, more than 5.00.
As to “487 (Ac-ARRRRQPVAIKF; not fully specified (residue 11); also: homodimer: Lys11 side chain bound to Ida linker (Boc on Ida N)) [compound 487]”, the pIC50 is 4.52 to 5.00.
As to “488 (Ac-PRRRNQAVAIKF; not fully specified (residue 11); also: homodimer via Ida linker on Lys11 side chain) [compound 488]”, the pIC50 was 4.52 to 5.00.
Turning to “489 (Ac-PRRRPQAVAIK(Ida″)F; also: homodimer via Ida linker on Lys11 side chain) [compound 489]”, the pIC50 is more than 5.00.
In the case of “490 (Ac-PRRRRQSVAIK(Ida″)F; also: homodimer via Ida linker on Lys11 side chain) [compound 490]” it was 4.52 to 5.00; in that of “491 (Ac-PRRRRQPVAIK(Ida″)F; also: homodimer via Ida linker on Lys11 side chain) [compound 491]”, 4.52 to 5.00; in that of “492 (Ac-ARRRNQSVAIKF; not fully specified (residue 11); also: homodimer: Lys11 side chain bound to Ida linker (Boc on Ida N)) [compound 492]”, 4.52 to 5.00.
As to “493 (Ac-ARRRNQPVAIKF; not fully specified (residue 11); also: homodimer: Lys11 side chain bound to Ida linker (Boc on Ida N)) [compound 493]”, the pIC50 was less than 4.52.
As for “494 (Ac-PRNRRQAVAIYFK(Ida″); not fully specified (C-terminus); also: homodimer via Ida linker on Lys13 side chain) [compound 494]”, the figure is 4.52 to 5.00; as for “495 (Ac-PRERRQAVAIYFK(Ida″); not fully specified (C-terminus); also: homodimer via Ida linker on Lys13 side chain) [compound 495]”, less than 4.52.
As for “496 (Ac-PRHRRQAVAIYFK(Ida″); not fully specified (C-terminus); also: homodimer via Ida linker on Lys13 side chain) [compound 496]”, the pIC50 was 4.52 to 5.00.
For the substance “497 (Ac-PRLRRQAVAIYFK(Ida″); not fully specified (C-terminus); also: homodimer via Ida linker on Lys13 side chain) [compound 497]”, the pIC50 was 4.52 to 5.00.
Take “498 (Ac-PRSRRQAVAIYFK(Ida″); not fully specified (C-terminus); also: homodimer via Ida linker on Lys13 side chain) [compound 498]”: the pIC50 is more than 5.00.
Consider “499 (Ac-PRYRRQAVAIYFK(Ida″); not fully specified (C-terminus); also: homodimer via Ida linker on Lys13 side chain) [compound 499]”, for which the pIC50 is more than 5.00.
Regarding “500 (Ac-PRRNRQAVAIYFK(Ida″); not fully specified (C-terminus); also: homodimer via Ida linker on Lys13 side chain) [compound 500]”, the pIC50 is more than 5.00.
In the case of “501 (Ac-PRRERQAVAIYFK; not fully specified (residue 13, C-terminus); also: homodimer via Ida linker on Lys13 side chain) [compound 501]”, the pIC50 was more than 5.00.
Take “502 (Ac-PRRHRQAVAIYFK; not fully specified (residue 13, C-terminus); also: homodimer via Ida linker on Lys13 side chain) [compound 502]”: the pIC50 was 4.52 to 5.00.
In the case of “503 (Ac-PRRLRQAVAIYFK; not fully specified (residue 13, C-terminus); also: homodimer via Ida linker on Lys13 side chain) [compound 503]” it was more than 5.00; in that of “505 (Ac-PRRYRQAVAIYFK; not fully specified (residue 13, C-terminus); also: homodimer via Ida linker on Lys13 side chain) [compound 505]”, more than 5.00.
